In the assay the test system is BDF1 mice, P388 leukemia ip, median survival T/C. Description: NCI In Vivo Anticancer Drug Screen. Data for tumor model P388 Leukemia (intraperitoneal) in B6D2F1 (BDF1) mice. Conditions: endpoint: median survival time, higher = longer survival. The gist of the method: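 In tumour-bearing mice, survival after compound treatment is set against the vehicle group and given as a quotient.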

[1] abbreviates: dose: 25.0 mg/kg/injection, schedule: Q04DX003 (ip), vehicle: saline with Tween-80.
[2] abbreviates: dose: 100.0 mg/kg/injection, schedule: Q01DX001 (ip), vehicle: saline with Tween-80.
Where [3] appears, read: dose: 200.0 mg/kg/injection, schedule: Q01DX001 (ip), vehicle: saline with Tween-80.
[4] abbreviates: dose: 100.0 mg/kg/injection, schedule: Q04DX003 (ip), vehicle: Klucel (hydroxypropylcellulose) (HPC).
The mark [5] stands for this setting: dose: 200.0 mg/kg/injection, schedule: Q04DX003 (ip), vehicle: Klucel (hydroxypropylcellulose) (HPC).
Setting [6] is: dose: 6.25 mg/kg/injection, schedule: Q01DX009 (ip), vehicle: saline.

Each structure is given as a SMILES string. Where “and” joins values, the source holds several entries; their conditions need not be identical. Equal entries are not always repeated. Toxic doses and inconclusive results are not listed.

For `Clc1ccc(C#Cc2ccc(Cl)cc2)cc1`, the T/C was 92 % of control (dose: 6.25 mg/kg/injection, schedule: Q04DX003 (ip), vehicle: saline with Tween-80); 92 % of control (dose: 12.5 mg/kg/injection, schedule: Q04DX003 (ip), vehicle: saline with Tween-80); 96 % of control under setting [1].

On to `CCC1OC(=O)CC(O)C(C)C(OC2OC(C)C(O)C(N(C)C)C2O)C(CC=O)CC(C)C(=O)/C=C/C2(C)OC2C1C` (stereo not drawn), for which, where the note is “dose: 150.0 mg/kg/injection, schedule: Q01DX009 (ip), vehicle: Klucel (hydroxypropylcellulose) (HPC)”, the T/C is 92 % of control.

As to `ICC1(CI)CCCCC1`, the T/C is, setting by setting: under setting [2], 100 % of control; under setting [3], 108 % of control.

In the case of `NN(c1ccccc1)c1ccc2ccccc2c1`, the T/C is 95 % of control (dose: 50.0 mg/kg/injection, schedule: Q04DX003 (ip), vehicle: Klucel (hydroxypropylcellulose) (HPC)); 104 % of control under setting [4]; 109 % of control under setting [5].

`CCOC(=O)NC(CC)CO` (stereo not drawn): the T/C runs as follows: (dose: 100.0 mg/kg/injection, schedule: Q01DX009 (ip), vehicle: Klucel (hydroxypropylcellulose) (HPC)) 100 % of control; (dose: 200.0 mg/kg/injection, schedule: Q01DX009 (ip), vehicle: Klucel (hydroxypropylcellulose) (HPC)) 95 % of control; (dose: 400.0 mg/kg/injection, schedule: Q01DX009 (ip), vehicle: Klucel (hydroxypropylcellulose) (HPC)) 90 % of control.

Consider `CC(C)Oc1ccc(Nc2ccccc2)cc1`, for which the T/C was 100 % of control (dose: 100.0 mg/kg/injection, schedule: Q01DX001 (ip), vehicle: Klucel (hydroxypropylcellulose) (HPC)); 100 % of control (dose: 200.0 mg/kg/injection, schedule: Q01DX001 (ip), vehicle: Klucel (hydroxypropylcellulose) (HPC)); 91 % of control (dose: 400.0 mg/kg/injection, schedule: Q01DX001 (ip), vehicle: Klucel (hydroxypropylcellulose) (HPC)).

On to `CC(C)C(=O)Nc1ccc(Cl)cc1`, for which the T/C was 100 % of control under setting [2]; 100 % of control under setting [3]; 100 % of control (dose: 400.0 mg/kg/injection, schedule: Q01DX001 (ip), vehicle: saline with Tween-80).

With `Nc1ccc2nc3ccc(N)cc3[n+](-c3ccccc3)c2c1`, the T/C was 100 % of control (dose: 0.12 mg/kg/injection, schedule: Q01DX009 (ip), vehicle: saline); 110 % of control (dose: 0.25 mg/kg/injection, schedule: Q01DX009 (ip), vehicle: saline); 110 % of control (dose: 0.5 mg/kg/injection, schedule: Q01DX009 (ip), vehicle: saline); 150 % of control (dose: 1.0 mg/kg/injection, schedule: Q03HX024 (ip), vehicle: saline); 116 % of control (dose: 1.13 mg/kg/injection, schedule: Q01DX009 (ip), vehicle: saline); 113 % of control (dose: 1.56 mg/kg/injection, schedule: Q01DX009 (ip), vehicle: saline). Moreover, the T/C reads like this: (dose: 2.0 mg/kg/injection, schedule: Q01DX009 (sc), vehicle: saline) 108 % of control; (dose: 2.0 mg/kg/injection, schedule: Q03HX024 (ip), vehicle: saline) 155 % of control; (dose: 4.0 mg/kg/injection, schedule: Q01DX009 (ip), vehicle: saline) 153 % of control; (dose: 4.0 mg/kg/injection, schedule: Q01DX009 (sc), vehicle: saline) 103 % of control; (dose: 4.0 mg/kg/injection, schedule: Q03HX016 (ip), vehicle: saline) 153 % of control; (dose: 4.0 mg/kg/injection, schedule: Q03HX024 (ip), vehicle: saline) 156 % of control. For the same molecule, the T/C (dose: 4.0 mg/kg/injection, schedule: Q04DX003 (sc), vehicle: saline) is 101 % of control; the T/C (dose: 6.0 mg/kg/injection, schedule: Q01DX009 (ip), vehicle: saline) is 166 % of control; the T/C under setting [6] was 154 % of control; the T/C (dose: 8.0 mg/kg/injection, schedule: Q01DX009 (ip), vehicle: saline) was 155 % of control and 173 % of control; the T/C (dose: 8.0 mg/kg/injection, schedule: Q01DX009 (oral), vehicle: saline) is 95 % of control; the T/C (dose: 8.0 mg/kg/injection, schedule: Q01DX009 (sc), vehicle: saline) is 106 % of control. In addition, the T/C by setting is: (dose: 8.0 mg/kg/injection, schedule: Q04DX003 (sc), vehicle: saline) 103 % of control; (dose: 8.0 mg/kg/injection, schedule: Q08DX002 (ip), vehicle: saline) 123 % of control; (dose: 9.0 mg/kg/injection, schedule: Q01DX009 (ip), vehicle: saline) 150 % of control; (dose: 9.3 mg/kg/injection, schedule: Q01DX009 (ip), vehicle: saline) 154 % of control; (dose: 16.0 mg/kg/injection, schedule: Q01DX009 (ip), vehicle: saline) 182 % of control; (dose: 16.0 mg/kg/injection, schedule: Q01DX009 (oral), vehicle: saline) 105 % of control. In addition, the T/C by setting is: (dose: 16.0 mg/kg/injection, schedule: Q01DX009 (sc), vehicle: saline) 96 % of control; (dose: 16.0 mg/kg/injection, schedule: Q04DX003 (oral), vehicle: saline) 99 % of control; (dose: 16.0 mg/kg/injection, schedule: Q04DX003 (sc), vehicle: saline) 106 % of control; (dose: 16.0 mg/kg/injection, schedule: Q08DX002 (ip), vehicle: saline) 122 % of control; (dose: 18.0 mg/kg/injection, schedule: Q01DX009 (ip), vehicle: saline) 154 % of control and 168 % of control and 195 % of control; (dose: 25.0 mg/kg/injection, schedule: Q04DX003 (ip), vehicle: saline) 175 % of control. Moreover, the T/C was 99 % of control (dose: 32.0 mg/kg/injection, schedule: Q01DX009 (oral), vehicle: saline); 105 % of control (dose: 32.0 mg/kg/injection, schedule: Q01DX009 (sc), vehicle: saline); 156 % of control (dose: 32.0 mg/kg/injection, schedule: Q04DX003 (ip), vehicle: saline); 105 % of control (dose: 32.0 mg/kg/injection, schedule: Q04DX003 (oral), vehicle: saline); 97 % of control (dose: 32.0 mg/kg/injection, schedule: Q04DX003 (sc), vehicle: saline); 150 % of control and 170 % of control (dose: 33.0 mg/kg/injection, schedule: Q04DX003 (ip), vehicle: saline). Besides, the T/C runs as follows: (dose: 50.0 mg/kg/injection, schedule: Q04DX003 (ip), vehicle: saline) 175 % of control and 180 % of control; (dose: 64.0 mg/kg/injection, schedule: Q01DX009 (oral), vehicle: saline) 102 % of control; (dose: 64.0 mg/kg/injection, schedule: Q04DX003 (oral), vehicle: saline) 101 % of control; (dose: 64.0 mg/kg/injection, schedule: Q04DX003 (sc), vehicle: saline) 101 % of control; (dose: 75.0 mg/kg/injection, schedule: Q04DX003 (ip), vehicle: saline) 165 % of control; (dose: 128.0 mg/kg/injection, schedule: Q01DX009 (oral), vehicle: saline) 107 % of control. In addition, the T/C was 101 % of control (dose: 128.0 mg/kg/injection, schedule: Q04DX003 (oral), vehicle: saline) and 100 % of control (dose: 256.0 mg/kg/injection, schedule: Q04DX003 (oral), vehicle: saline).

For `N#CC(C(N)=O)c1ccccc1` (stereo not drawn), the T/C was 102 % of control under setting [1]; 108 % of control (dose: 50.0 mg/kg/injection, schedule: Q04DX003 (ip), vehicle: saline with Tween-80); 97 % of control (dose: 100.0 mg/kg/injection, schedule: Q04DX003 (ip), vehicle: saline with Tween-80).

`CC([OH2+])CNCCN.CC([OH2+])CNCCN.O=S(=O)([O-])[O-].[Cu+2]` (stereo not drawn): the T/C is 101 % of control under setting [6]; 91 % of control (dose: 12.5 mg/kg/injection, schedule: Q01DX009 (ip), vehicle: saline); 94 % of control (dose: 25.0 mg/kg/injection, schedule: Q01DX009 (ip), vehicle: saline).

As for `Cc1ccccc1-n1c(C)nc2ccccc2c1=O`, the T/C was 100 % of control (dose: 12.5 mg/kg/injection, schedule: Q01DX009 (ip), vehicle: Klucel (hydroxypropylcellulose) (HPC)); 96 % of control (dose: 25.0 mg/kg/injection, schedule: Q01DX009 (ip), vehicle: Klucel (hydroxypropylcellulose) (HPC)); 92 % of control (dose: 50.0 mg/kg/injection, schedule: Q01DX009 (ip), vehicle: Klucel (hydroxypropylcellulose) (HPC)); 104 % of control under setting [4]; 91 % of control under setting [5].

For the origin of these results see PubChem BioAssay AID328 (DTP/NCI, 2004).
